Key:
[1] = target: T1, Alpha-1A adrenergic receptor (Homo sapiens, UniProt P35348); assay: Displacement of [3H]prazosin from human adrenergic alpha1A receptor
T1 sequence (P35348 whole entry): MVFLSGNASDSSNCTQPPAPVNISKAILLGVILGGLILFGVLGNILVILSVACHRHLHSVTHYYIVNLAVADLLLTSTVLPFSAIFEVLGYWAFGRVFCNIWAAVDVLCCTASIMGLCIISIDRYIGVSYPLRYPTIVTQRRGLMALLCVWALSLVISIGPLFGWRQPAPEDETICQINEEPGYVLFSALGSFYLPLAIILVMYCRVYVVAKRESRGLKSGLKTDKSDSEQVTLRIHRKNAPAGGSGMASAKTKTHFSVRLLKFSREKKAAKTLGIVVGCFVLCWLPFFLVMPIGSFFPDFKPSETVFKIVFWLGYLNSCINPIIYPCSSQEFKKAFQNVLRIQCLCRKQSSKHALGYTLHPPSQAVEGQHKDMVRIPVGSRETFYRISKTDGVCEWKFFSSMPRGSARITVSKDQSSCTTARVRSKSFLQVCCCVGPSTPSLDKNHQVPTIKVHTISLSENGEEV

Homo sapiens [2] = species on record: Homo sapiens; assay: Selectivity ratio of Ki for human dopamine D2S receptor to Ki for human dopamine D3 receptor
D(3) dopamine receptor = D(3) dopamine receptor (Homo sapiens, UniProt P35462); assay: biochemical
Description: Displacement of [3H]spiperone from human dopamine D3 receptor expressed in CHO cells

Homo sapiens [3] = species on record: Homo sapiens; assay: Selectivity ratio of Ki for human adrenergic alpha1A receptor to Ki for human dopamine D3 receptor
D(2) dopamine receptor = D(2) dopamine receptor (Homo sapiens, UniProt P14416); assay: Displacement of [3H]spiperone from human dopamine D2S receptor expressed in HEK293 cells; type: cell-based
Rattus norvegicus = assay: Absolute bioavailability in rat plasma at 10 mg/kg, po and 3 mg/kg, iv; type: ADME, organism-based; settings: in vivo
Mus musculus = assay: Absolute bioavailability in mouse plasma at 10 mg/kg dose po and iv; type: ADME, organism-based; settings: in vivo

D(2) dopamine receptor, sequence (P14416 whole entry): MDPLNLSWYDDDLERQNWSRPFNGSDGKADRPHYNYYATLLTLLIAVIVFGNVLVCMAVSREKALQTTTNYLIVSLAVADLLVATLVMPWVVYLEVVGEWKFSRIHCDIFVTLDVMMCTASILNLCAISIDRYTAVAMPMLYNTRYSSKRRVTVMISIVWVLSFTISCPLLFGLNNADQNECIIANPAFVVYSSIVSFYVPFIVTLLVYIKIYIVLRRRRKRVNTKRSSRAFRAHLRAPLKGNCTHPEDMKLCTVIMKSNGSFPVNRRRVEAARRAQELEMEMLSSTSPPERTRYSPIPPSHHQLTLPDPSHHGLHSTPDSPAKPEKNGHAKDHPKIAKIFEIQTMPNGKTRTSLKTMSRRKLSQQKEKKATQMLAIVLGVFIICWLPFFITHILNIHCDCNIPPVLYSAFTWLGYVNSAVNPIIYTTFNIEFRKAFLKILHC
D(3) dopamine receptor, sequence (P35462 whole entry): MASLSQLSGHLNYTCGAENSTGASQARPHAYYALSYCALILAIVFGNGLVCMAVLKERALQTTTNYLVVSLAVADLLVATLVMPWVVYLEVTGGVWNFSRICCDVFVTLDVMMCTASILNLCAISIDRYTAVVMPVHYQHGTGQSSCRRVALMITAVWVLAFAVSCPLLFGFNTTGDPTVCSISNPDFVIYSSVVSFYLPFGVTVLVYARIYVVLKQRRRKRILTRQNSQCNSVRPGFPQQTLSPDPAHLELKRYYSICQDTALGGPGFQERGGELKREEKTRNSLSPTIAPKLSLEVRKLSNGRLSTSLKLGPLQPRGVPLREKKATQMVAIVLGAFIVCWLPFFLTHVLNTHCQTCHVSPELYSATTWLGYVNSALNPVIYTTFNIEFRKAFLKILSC

Row | Structure (SMILES) | Ki [1] [nM] | Ratio Ki (Homo sapiens [2]) | Ki (D(3) dopamine receptor) [nM] | Ratio Ki (Homo sapiens [3]) | Ki (D(2) dopamine receptor) [nM] | bioavailability (Rattus norvegicus) | bioavailability (Mus musculus)
1 | Fc1ccccc1N1CCN(CCCCNc2ccccn2)CC1 | 17 | 12 | 11 | 1.5 | 133 | – | –
2 | Fc1ccccc1N1CCN(CCCCNc2ccc(-c3ccccc3)cn2)CC1 | 10 | 49 | 2.5 | 4 | 122 | – | –
3 | Clc1cccc(N2CCN(CCCCNc3nccc4ccccc34)CC2)c1Cl | 60 | – | – | – | – | – | –
4 | Clc1cccc(N2CCN(CCCCNc3ccccn3)CC2)c1Cl | 33 | – | – | – | – | – | –
5 | FC(F)(F)c1cccc(N2CCN(CCCCNc3nccc4ccccc34)CC2)c1 | 68 | 58 | 1 | 68 | 58 | – | –
6 | COc1ccccc1N1CCN(CCCCNc2ccc3ccccc3n2)CC1 | 6 | – | – | – | – | – | –
7 | Clc1cccc(N2CCN(CCCCNc3ccc(-c4ccccc4)cn3)CC2)c1Cl | 21 | 69 | 0.59 | 35 | 41 | – | –
8 | FC(F)(F)c1cccc(N2CCN(CCCCNc3ncc(-c4ccccc4)o3)CC2)c1 | 272 | 242 | 9.6 | 28 | 2320 | – | –
9 | FC(F)(F)c1cccc(N2CCN(CCCCNc3ccc4ccccc4n3)CC2)c1 | 12 | 33 | 1.6 | 7.5 | 53 | – | –
10 | FC(F)(F)c1cccc(N2CCN(CCCCNc3ccc(-c4ccccc4)cn3)CC2)c1 | 227 | 130 | 1.1 | 207 | 143 | – | –
11 | Cc1ccccc1N1CCN(CCCCNc2ccccn2)CC1 | 14 | 12 | 32 | 0.4 | 383 | – | –
12 | Clc1cccc(N2CCN(CCCCNc3ccc4ccccc4n3)CC2)c1Cl | 46 | 39 | 0.6 | 77 | 23 | – | –
13 | Cc1cccc(N2CCN(CCCCNc3ccccn3)CC2)c1C | 40 | 17 | 12 | 3 | 207 | – | –
14 | FC(F)(F)c1cccc(N2CCN(CCCCNc3nc(-c4ccccc4)cs3)CC2)c1 | 72 | 183 | 13 | 5.4 | 2430 | – | –
15 | FC(F)(F)c1cccc(N2CCN(CCCCNc3cc(-c4ccccc4)ccn3)CC2)c1 | 119 | 256 | – | 157 | 194 | 0.65 | 0.4
16 | Clc1cccc(N2CCN(CCCCNc3cc(-c4ccccc4)ccn3)CC2)c1Cl | 58 | 334 | – | 106 | 184 | – | –
17 | Fc1ccccc1N1CCN(CCCCNc2cc(-c3ccccc3)ccn2)CC1 | 9 | 206 | 1.5 | 6 | 309 | – | –
18 | COc1ccccc1N1CCN(CCCCNc2nccc3ccccc23)CC1 | 6 | 70 | 1 | 6.3 | 70 | – | –
19 | FC(F)(F)c1cccc(N2CCN(CCCCNc3ccccn3)CC2)c1 | 593 | 12 | 17 | 35 | 198 | – | –
20 | COc1ccccc1N1CCN(CCCCNc2ccccn2)CC1 | 23 | 247 | 0.8 | 29 | 198 | – | –

Source: ChEMBL document CHEMBL1221353, “Synthesis and evaluation of amides surrogates of dopamine D3 receptor ligands” (Bioorg Med Chem Lett, 2010)
